Laboratory results: patent publication US20210147455A1 (SHAANXI SYNTHETIC PHARMACEUTICAL CO., LTD., priority 2018, published 2021)
Converted amounts (≈) assume the structure as drawn. “And” between values parts separate entries of the source, which are not always exact repeats. Equal entries are not always repeated. Where two headings read alike, the source gives them in different places.

Tests used:
[1] = Hygroscopicity study (Chinese Pharmacopoeia 2015, 9103); assay type: physicochemical; conditions: for Hygroscopic weight gain: 25° C.±1° C., saturated ammonium chloride solution, 24 hours; for Conclusion (hygroscopicity): after 24 hours
Procedure: Test method: • 1. A dried glass weighing bottle with stopper (having an outer diameter of 50 mm and a height of 15 mm) was placed in a thermostatic drier (a saturated ammonium chloride solution was placed on the lower part of the thermostatic drier) at an appropriate temperature of 25° C.±1° C. on the day earlier before the test, and the weight (m1) of weighing bottle was precisely weighed. • 2. An appropriate amount of test sample was taken and spread in the weighing bottle, and the thickness of the test sample was controlled to about 1 mm, and the weight (m2) was precisely weighed. • 3. The weighing bottle was opened and was placed, together with the bottle cap, under the above mentioned constant temperature and humidity condition for 24 hours. • 4. The weighing bottle was capped and precisely weighed to obtain the weight (m3).
Description of hygroscopicity characterization and delimitation of hygroscopicity weight gain: Deliquescence: enough moisture is absorbed to form a liquid. […] Slightly hygroscopic: hygroscopic weight gain is less than 2% but not less than 0.2%. Not or hardly hygroscopic: hygroscopic weight gain is less than 0.2%.

[2] = Stability experiments under 25° C.±2° C. and 65% R.H±5% R.H; conditions: 25° C./65% R.H
Description: • 1. […] The results are shown in detail in the following table.

[3] = Stability experiments under 40° C.±2° C. and 75% R.H±5% R.H (accelerated test); assay type: physicochemical; conditions: 40° C./75% R.H
[4] = day 5, High temperature of 40° C.
[5] = day 10, High temperature of 40° C.
[6] = month 3, Phosphate Monopotassium Salt
[7] = month 6, Phosphate Monopotassium Salt
[8] = month 9, Phosphate Monopotassium Salt
[9] = month 12, Phosphate Monopotassium Salt
[10] = month 24, Phosphate Monopotassium Salt

Molecule: CC[C@@H]([C@H](C)OP(=O)(O)O)n1ncn(-c2ccc(N3CCN(c4ccc(OC[C@@H]5CO[C@@](Cn6cncn6)(c6ccc(F)cc6F)C5)cc4)CC3)cc2)c1=O [Example 3, Posaconazole Phosphate Monocholinate Pentahydrate]
- Hygroscopic weight gain [1]: 0.15%
- Conclusion (hygroscopicity) [1]: No hygroscopicity
- Content ([2]; month 0): 99.37%
- Description ([2]; month 0): White
- Related substance ([2]; month 0): 0.13%
- Content ([2]; month 3): 99.87%
- Description ([2]; month 3): White
- Related substance ([2]; month 3): 0.13%
- Content ([2]; month 6): 99.87%
- Description ([2]; month 6): White
- Related substance ([2]; month 6): 0.13%
- Content ([2]; month 9): 99.84%
- Description ([2]; month 9): White
- Related substance ([2]; month 9): 0.16%
- Content ([2]; month 12): 99.84%
- Description ([2]; month 12): White
- Related substance ([2]; month 12): 0.16%
- Content ([2]; month 24): 99.79%
- Description ([2]; month 24): White
- Related substance ([2]; month 24): 0.21%
- Content ([3]; month 0): 99.87%
- Description ([3]; month 0): White
- Related substance ([3]; month 0): 0.13%
- Content ([3]; month 1): 99.87%
- Description ([3]; month 1): White
- Related substance ([3]; month 1): 0.13%
- Content ([3]; month 2): 99.87%
- Description ([3]; month 2): White
- Related substance ([3]; month 2): 0.13%
- Content ([3]; month 3): 99.86%
- Description ([3]; month 3): White
- Related substance ([3]; month 3): 0.14%
- Content ([3]; month 6): 99.85%
- Description ([3]; month 6): White
- Related substance ([3]; month 6): 0.15%
- Content (day 0): 99.87%
- Description (day 0): White
- Related substance (day 0): 0.13%
- Content (day 5, High humidity of 92.5%): 99.86%
- Description (day 5, High humidity of 92.5%): White
- Related substance (day 5, High humidity of 92.5%): 0.14%
- Content [4]: 99.87%
- Description [4]: White
- Related substance [4]: 0.13%
- Content (day 5, Illumination of 4500LX): 99.87%
- Description (day 5, Illumination of 4500LX): White
- Related substance (day 5, Illumination of 4500LX): 0.13%
- Content (day 10, High humidity of 92.5%): 99.86%
- Description (day 10, High humidity of 92.5%): White
- Related substance (day 10, High humidity of 92.5%): 0.14%
- Content [5]: 99.85%
- Description [5]: White
- Related substance [5]: 0.15%
- Content (day 10, Illumination of 4500LX): 99.86%
- Description (day 10, Illumination of 4500LX): White
- Related substance (day 10, Illumination of 4500LX): 0.14%

Molecule: CC[C@@H]([C@H](C)O)n1ncn(-c2ccc(N3CCN(c4ccc(OC[C@@H]5CO[C@@](Cn6cncn6)(c6ccc(F)cc6F)C5)cc4)CC3)cc2)c1=O [Posaconazole]
- solubility (Solubility study; isopropanol, organic solvent or mixture): 100 µg/mL (≈ 143 µM)
- solubility (Solubility study; methanol, organic solvent or mixture): 60 µg/mL (≈ 85.6 µM)
- solubility (Solubility study; water): 50 µg/mL (≈ 71.3 µM)

Molecule: Posaconazole Phosphate Monopotassium Salt Trihydrate [Comparative Example 6]
- Hygroscopic weight gain [1]: 1.95%
- Conclusion (hygroscopicity) [1]: Slight hygroscopicity
- Content ([2]; month 0): 99.87%
- Description ([2]; month 0): White
- Related substance ([2]; month 0): 0.13%
- Content ([2]; month 3): 99.78%
- Description ([2]; month 3): White
- Related substance ([2]; month 3): 0.22%
- Content ([2]; month 6): 99.70%
- Description ([2]; month 6): White
- Related substance ([2]; month 6): 0.30%
- Content ([2]; month 9): 99.59%
- Description ([2]; month 9): White
- Related substance ([2]; month 9): 0.41%
- Content ([2]; month 12): 99.48%
- Description ([2]; month 12): White
- Related substance ([2]; month 12): 0.52%
- Content ([2]; month 24): 99.00%
- Description ([2]; month 24): White
- Related substance ([2]; month 24): 1.00%
- Content ([3]; month 0): 99.87%
- Description ([3]; month 0): White
- Related substance ([3]; month 0): 0.13%
- Content ([3]; month 1): 99.76%
- Description ([3]; month 1): White
- Related substance ([3]; month 1): 0.24%
- Content ([3]; month 2): 99.65%
- Description ([3]; month 2): White
- Related substance ([3]; month 2): 0.35%
- Content ([3]; month 3): 99.49%
- Description ([3]; month 3): White
- Related substance ([3]; month 3): 0.51%
- Content ([3]; month 6): 99.38%
- Description ([3]; month 6): White
- Related substance ([3]; month 6): 0.62%

Molecule: Posaconazole Phosphate Monopotassium Salt [Comparative Example 3]
- Hygroscopic weight gain [1]: 1.56%
- Conclusion (hygroscopicity) [1]: Slight hygroscopicity
- Content ([2]; month 0): 99.87%
- Description ([2]; month 0): White
- Related substance ([2]; month 0): 0.13%
- Description ([2]; month 3): White
- Content [2, 6]: 99.73% and 99.80%
- Related substance [2, 6]: 0.27% and 0.20%
- Description ([2]; month 6): White
- Content [2, 7]: 99.67% and 99.68%
- Related substance [2, 7]: 0.37% and 0.32%
- Description ([2]; month 9): White
- Content [2, 8]: 99.55% and 99.59%
- Related substance [2, 8]: 0.45% and 0.41%
- Description ([2]; month 12): White
- Content [2, 9]: 99.41% and 99.48%
- Related substance [2, 9]: 0.59% and 0.52%
- Description ([2]; month 24): White
- Content [2, 10]: 98.88% and 99.03%
- Related substance [2, 10]: 1.12% and 0.97%
- Content ([3]; month 0): 99.87%
- Description ([3]; month 0): White
- Related substance ([3]; month 0): 0.13%
- Content ([3]; month 1): 99.75%
- Description ([3]; month 1): White
- Related substance ([3]; month 1): 0.25%
- Content ([3]; month 2): 99.64%
- Description ([3]; month 2): White
- Related substance ([3]; month 2): 0.36%
- Content ([3]; month 3): 99.51%
- Description ([3]; month 3): White
- Related substance ([3]; month 3): 0.49%
- Content ([3]; month 6): 99.38%
- Description ([3]; month 6): White
- Related substance ([3]; month 6): 0.62%

Molecule: Posaconazole Phosphate Monosodium Salt Trihydrate [Comparative Example 7]
- Hygroscopic weight gain [1]: 1.86%
- Conclusion (hygroscopicity) [1]: Slight hygroscopicity
- Content ([2]; month 0): 99.87%
- Description ([2]; month 0): White
- Related substance ([2]; month 0): 0.18%
- Content ([2]; month 3): 99.78%
- Description ([2]; month 3): White
- Related substance ([2]; month 3): 0.22%
- Content ([2]; month 6): 99.71%
- Description ([2]; month 6): White
- Related substance ([2]; month 6): 0.29%
- Content ([2]; month 9): 99.61%
- Description ([2]; month 9): White
- Related substance ([2]; month 9): 0.39%
- Content ([2]; month 12): 99.51%
- Description ([2]; month 12): White
- Related substance ([2]; month 12): 0.49%
- Content ([2]; month 24): 98.98%
- Description ([2]; month 24): White
- Related substance ([2]; month 24): 1.02%
- Content ([3]; month 0): 99.87%
- Description ([3]; month 0): White
- Related substance ([3]; month 0): 0.13%
- Content ([3]; month 1): 99.77%
- Description ([3]; month 1): White
- Related substance ([3]; month 1): 0.23%
- Content ([3]; month 2): 99.63%
- Description ([3]; month 2): White
- Related substance ([3]; month 2): 0.37%
- Content ([3]; month 3): 99.50%
- Description ([3]; month 3): White
- Related substance ([3]; month 3): 0.50%
- Content ([3]; month 6): 99.37%
- Description ([3]; month 6): White
- Related substance ([3]; month 6): 0.63%
